According to patent US10768174B2, “Attachment of proteins to interfaces for use in nonlinear optical detection” (Bluelight Therapeutics, Inc., priority 2014, dated 2020):

Key:
calmodulin (CaM) = molecular target: T1, calmodulin (CaM) (Homo sapiens, UniProt P0DP23); experiment: SHG detection of ligand-induced conformational change of labeled calmodulin tethered to Ni-NTA supported lipid bilayer; assay type: binding; conditions: buffer containing 1 mM CaCl2 injected; N=3
T1 construct: purchased EMD Millipore (Billerica, Mass.)
From the text: MBP and CaM Proteins: To explore the ability of our SHG bilayer system to detect and measure conformational changes of a protein, we began by testing the system on CaM and MBP, two proteins previously studied by SHG [32, 33]. First, we tethered labeled CaM to the SLB surface and monitored the change in SHG intensity upon addition of the calmodulin binding peptide (CBP) in the presence or absence of calcium-containing buffers. […] When calcium is omitted from the buffer, addition of the peptide alone results in M=3.1%, (N=3, SEM±1.6) change in SHG intensity, essentially no change (FIG. 7B). […] Next, we evaluated the effect of adding calcium ions. […] Peptide was then added directly to these samples two minutes after calcium addition, producing a positive signal change of M=8.7% (N=3, SEM±0.4). As the magnitude of the SHG signal is proportional to the net, average orientation of the dye label relative to the surface normal, the different magnitudes of SHG signal change upon binding CBP and calcium to unbound CaM confirm that these ligands bind to specific and different conformations of the protein. SHG signal changes can occur in either the positive or negative direction relative to baseline depending on whether the net, average orientation of the probe moves closer to or further away from the surface normal, respectively. […]
(§1) SHG signal was monitored over several minutes after injection.

[1] = molecular target: monomeric forms of avidin or streptavidin; conditions: read-out: biotin-binding affinity of monomeric forms of avidin or streptavidin; cited from earlier work
His-tag-Ni-NTA linkage = experiment: Specificity of protein attachment to bilayer: incubation with or without imidazole, SHG signal; assay type: binding; conditions: imidazole 350 mM (FIG. 6A legend) / 300 mM (methods)
Experimental: We began by characterizing the attachment of the proteins to our SLB surface. The SLB surface we employed has integrated immobilized metal affinity (Ni-NTA) chemistry to specifically tether the proteins to the bilayer in an oriented manner via a poly-histidine tag at the N- or C-terminus. To test the specificity of this interaction, each protein was incubated on the bilayer in the presence or absence of imidazole, a competitive inhibitor of His-tagged protein binding. […] When labeled protein is incubated in the presence of imidazole, SHG signal levels are reduced to less than 10% of the original signal or to background levels, i.e. to those of bilayer alone.

[2] = molecular target: T2, maltose binding protein (MBP) (Escherichia coli, UniProt P0AEX9); experiment: SHG detection of ligand-induced conformational change of lysine-labeled MBP tethered to Ni-NTA supported lipid bilayer; design: purchased AtGen Co, Ltd (Seongnam-si, Gyeonggi-do, South Korea); conditions: for change in SHG intensity (M): 2 mM maltose, MBP labeled at pH 7.5, N=3; for change in SHG signal (M): 2 mM, MBP labeled at pH 8.3, N=4
Experimental: We also performed a similar set of experiments with MBP. First, we monitored the SHG intensity of MBP labeled at pH 8.3 upon addition of buffer, lactose, or maltose. […] Because the addition of both 2 mM lactose and buffer alone result in negligible changes in SHG intensity, the change in SHG intensity upon maltose addition is specific to ligand-induced conformational change upon binding.
The converse trend, preference at K88 over K15, was observed when the experimental conditions changed to pH 8.3. […] Based on inspection of the crystal structures, we hypothesized that when MBP is primarily labeled at K15 rather than K88, this could alter the directionality of SHG signal change upon ligand addition relative to the reverse case, since K15 and K88 appear to rotate towards and away from the surface normal, respectively, assuming the protein is oriented with its N-terminus facing the bilayer. […] Consistent with previous results, the addition of lactose and buffer alone had no effect.
J Am Chem Soc 136(29):10349-10360). […] (under standard kinetic condition described in ref [28].
Excess protein was removed by additional washes after incubation.
as §1

[3] = molecular target: T2, maltose binding protein (MBP); experiment: Example 2 SHG kinetic reads of PyMPO-labeled His-tagged MBP tethered on 10% Ni-NTA bilayer; conditions: 10 uL injection of 2 mM solution into 10 uL well; 10% Ni-NTA tethered MBP
Experimental: Protein labeling protocol: Stock His-tagged maltose binding protein (MBP) (1 mL at nominal 0.5 mg/mL) was buffer exchanged from 20 mM Tris-HCL pH 8.0, 0.1 M NaCl, 10% Glycerol into 0.1 M Na phosphate, pH 7.5 by passing over two of the 2 mL Zeba™ Spin Desalting Columns (Thermo Scientific) equilibrated per the manufacturer's instructions. Concentration and volume of the buffer exchanged material were determined by measuring absorbance on a NanoDrop Spectrophotometer (Thermo Scientific). PyMPO-NHS was weighed out and dissolved to 2 mM in dry DMSO. PyMPO-NHS was added to the buffer exchanged MBP at 3.5:1 mole equivalents. The conjugation reaction was allowed to proceed in the dark at room temp, stirring gently, for 15 minutes. The reaction was terminated by buffer exchange back into the MBP storage buffer (20 mM Tris-HCL pH 8.0, 0.1 M NaCl, 10% Glycerol) over a fresh pair of Zeba™ Spin Desalting Columns. The resultant conjugate was centrifuged at 16K×g for 20 minutes at 4° C., and volume, concentration and degree of labeling was determined for the supernatant by measuring absorbance at 280 nm and 410 nm on the NanoDrop. […]
Scanning: The entire slide was line scanned to gather SHG data for determining the relative tethering efficiency of 3% vs 10% Ni-NTA surfaces. Well positions for 10% Ni-NTA tethered MBP were recorded and used to set up the MBP kinetic reads (3 wells total). […]

Row | Structure (SMILES) | change in SHG intensity (M) [2] | change in SHG signal (M) [2] | also measured
1 | [Ca+2].[Cl-].[Cl-] [CaCl2] | – | – | change in SHG signal (M) (calmodulin (CaM)): −12.6%
2 | O=C(O)CCCC[C@@H]1SC[C@@H]2NC(=O)N[C@@H]21 [biotin] | – | – | Kd [1]: ~10 nM
3 | c1c[nH]cn1 [imidazole] | – | – | SHG signal level of labeled protein incubated in the presence of imidazole (His-tag-Ni-NTA linkage): less than 10 % of the original signal
4 | OC[C@H]1O[C@@H](O[C@H]2[C@H](O)[C@@H](O)C(O)O[C@@H]2CO)[C@H](O)[C@@H](O)[C@H]1O (some centres unmarked) [lactose] | no effect | 0.44% | –
5 | OC[C@H]1O[C@H](O[C@H]2[C@H](O)[C@@H](O)[C@H](O)O[C@@H]2CO)[C@H](O)[C@@H](O)[C@@H]1O [maltose] | 27.4% | −33.8% | SHG response (induced conformational change) of MBP [3]: only responded to addition of maltose
